Results: a melting point compilation (Tetko et al.; mined from patent text by program, amines drawn as free bases though some values may be those of a salt)

Row | Compound | melting point [°C]
1 | c1ccc(N2CCN(Cc3c[nH]c4ncccc34)CC2)cc1 | 207 to 209
2 | CC(C)C(=O)N[C@H]1N=C(c2ccccc2)c2ccccc2N(C)C1=O | 87 to 107
3 | CCS(=O)c1nsc(NC(=O)NC)c1C(N)=O (configuration not stated) | 245
4 | O=C(CC(F)=C(F)F)Nc1ccc(S(=O)(=O)O)cc1 | > 300
5 | COc1cc(C=CC(=O)Nc2cnc3c(C)cc(C)cc3c2-c2ccccc2Cl)cc(OC)c1OC | 198 to 200
6 | COc1ccc(CSc2ccc([N+](=O)[O-])cc2CBr)cc1 | 98 to 99
7 | Nc1c(CO)cccc1[N+](=O)[O-] | 100
8 | O=C(CCl)CC(=O)Nc1ccccc1 | 142 to 143
9 | Cc1cc2c(c(C)c1S(=O)(=O)C[N+](=O)[O-])CCC(C)(C)O2 | 110 to 111
10 | O=C(Nc1nc(C(F)(F)F)co1)C1c2ccccc2Oc2c(F)cccc21 (racemic) | 233
11 | O=C(O)C(=O)c1oc2cccc(OCc3ccc(F)cc3)c2c1O | 195 to 200
12 | O=C(O)C1=Cc2c(cc(Cl)c(Cl)c2Cl)OC1C(F)(F)F (configuration not stated) | 236 to 239
13 | CC(CCNC(=O)C(C#N)=Cc1cc(O)c(O)c(O)c1)NC(=O)C(C#N)=Cc1cc(O)c(O)c(O)c1 (configuration not stated) | > 300
14 | CC(C)C1SC=CNC1=O (racemic) | 101 to 106
15 | O=Cc1cc2cc(OCc3ccccc3)c(F)cc2nc1I | 210
16 | C=CCNc1nc(=O)c2cccnc2n1Cc1ccc(F)cc1 | 190 to 194
17 | CNc1nnc(C(C)(C)CCl)s1 | 91 to 93

Row | Compound | melting point [°C]
18 | Oc1c(F)cc(Cn2cc[nH]c2=S)cc1F | 188
19 | O=C1NCc2cc(C(O)c3cccnc3)ccc2N1 (configuration not stated) | 272
20 | COc1ccc(-c2nc3ccc(OC(F)(F)F)cc3[nH]2)c(OC)c1 | 201 to 203
21 | CCCCc1oc2ccccc2c1-c1ccc(-c2ccc(OC(Cc3ccccc3)C(=O)O)cc2)cc1 (configuration not stated) | 169 to 170
22 | COc1ccc([N+](=O)[O-])cc1CC#N | 100
23 | COc1cc(C=CC(=O)c2ccccc2[N+](=O)[O-])cc(OC)c1 | 98.4 to 98.9
24 | COC(=O)C=Cc1ccc(-c2ccc(O)cc2)cc1 | 233 to 235
25 | CC(=O)c1cc2c(c(O)c1Cl)C(C)(C)CC2(C)C | 78 to 80
26 | Cc1ccc2c(c1)C(=O)c1ccc(C(=O)O)cc1S2(=O)=O | 357
27 | COC(=O)c1cccc2oc(-c3ccccc3O)nc12 | 134 to 135
28 | CC(=O)OC1CSC(Oc2cc(-c3ccc(F)nc3)cnc2Cl)C(OC(C)=O)C1OC(C)=O (configuration not stated) | 70 to 90
29 | COC(=O)c1c(OC)cc(C(F)(F)F)nc1C(F)(F)F | 101 to 103
30 | Cc1ccc(-c2c(Cl)ccc3c2C=C(C(=O)O)C(C(F)(F)F)O3)cc1 (configuration not stated) | 218 to 220
31 | C=C(C#N)C(=O)OCC(C)(C)C | 40 to 41
32 | c1cncc(-c2nncs2)c1 | 78 to 79
33 | COC(=O)C[C@H]1N=C(c2ccccc2Cl)c2cc(Cl)ccc2NC1=O | 168 to 170

The next lines start with the values.

Row | melting point [°C] | Compound
34 | 68 to 69 | CC(=O)OCC(ON1C(C)(C)CC(O)CC1(C)C)c1ccccc1 (configuration not stated)
35 | > 260 | CC1(C)CCC2=C(C1=O)C(c1ccc(F)c(Br)c1)C1=C(COCC1=O)N2 (configuration not stated)
36 | 184 to 186 | CCc1cc(-c2ccncc2)cc(CC)c1C(C(N)=O)C(N)=O
37 | 185 to 189 | CCC(C(CC(=O)OC)c1ccc2c(c1)OCO2)[N+](=O)[O-] (configuration not stated)
38 | 60 to 62 | COC1=C(OC)C(=O)C(CN2CCOCC2)=C(C)C1=O
39 | 159 to 161 | CCc1cc(CC)c2ccc(=O)[nH]c2n1
40 | 182 | Cc1c(C(=O)Nc2ccc(N3CCC(O)CC3)c(C#N)c2)cnn1-c1ccccc1
41 | 52 to 55 | CCCCN(C1CS(=O)(=O)c2cc([N+](=O)[O-])ccc21)S(C)(=O)=O (configuration not stated)
42 | 229 to 231 | CCC(=O)c1c[nH]c2cc(C(=O)OC)ccc12
43 | 210 to 211 | CC(C)(C)C(=O)Nc1ccc2oc3c(c2c1)CCCC3
44 | 114 to 116 | O=Cc1ccc(OC2CCN(c3ccccn3)CC2)cc1
45 | 88 to 90 | O=C(CCc1ccc(O)c(Cl)c1)C1CCCC1
46 | 131 to 136 | Cn1cnc(C(O)c2cc(Cl)cc3c2OC(C)(C)OC3)c1 (configuration not stated)
47 | 261 to 263 | COc1cc2c(cc1S(=O)(=O)c1ccc(C)cc1)[C@@H](N1CCCCC1=O)[C@H](O)C(C)(C)O2 (relative stereo)
48 | 185 to 186 | Cc1ccc(C(=O)NCCN(C)C)cc1-n1c(C)cc(OCc2ccccc2CNC(=O)Nc2cc(C(C)(C)C)nn2-c2ccc(Cl)c(O)c2)c(Cl)c1=O
49 | 250 to 251 | Cc1ccc(-c2ccc3c(c2)C=C(C(=O)Nc2ccc(CS(=O)(=O)C4CCCCC4)cc2)CCO3)cc1
50 | 178 to 182 | Cc1ccc(C(=O)OCCOC(=O)NC2(C(=O)O)CC2)cc1
51 | 148 to 149 | CC(C)C[C@H](NC(=O)OCC1CCCCC1)C(=O)N[C@@H](C(C)C)[C@H](O)c1c(-c2ccccc2)c1=O
52 | 90 to 91 | CC(O)CNC(=O)c1cc2ccccc2o1 (configuration not stated)
53 | 96 to 98 | CC(=O)NCC1CC1c1cccc2nc(C)sc12 (configuration not stated)

Row | melting point [°C] | Compound
54 | 200 to 202 | CC(=O)N(C[C@H]1CN(c2ccc(N3CCC4(CC3)OCCO4)c(F)c2)C(=O)O1)C(C)=O
55 | 246 | NC(N)=Nc1nc(-c2ccc(CNC(=O)c3ccco3)o2)cs1
56 | 72 to 75 | CC1CCN(C(=O)Oc2ccc(Oc3ccc(Cl)cc3)cc2)CC1
57 | 107 to 110 | CCOC(=O)C1=C(C)NC(C=NN)=C(C(=O)OCC)C1c1ccccc1Cl (configuration not stated)
58 | 144 to 146 | CC[C@H]1COC(=O)N1c1cc(C)nc(Oc2c(C)cc(Cl)cc2C)c1C(=O)OC
59 | 228 to 229 | CC(=O)NCC1CN(c2c(F)c(N)c3c(=O)c(C(=O)O)cn(C4CC4)c3c2F)CCO1 (configuration not stated)
60 | 177 to 178 | Cc1cccc(C)c1CNc1cc(C(=O)N(C)CCO)cc2c1nc(C)n2C
61 | 110 to 112 | O=C1COc2ccc(Br)cc2C(=O)C1
62 | 167 | Clc1ccc(-c2nc3c(c(NC4CCCC4)n2)CCC3)cc1
63 | 188 to 189 | O=C(O)CC1CCCc2c1n(Cc1cccc(Cl)c1)c1c(F)cc(F)cc21 (configuration not stated)
64 | 136 to 137 | COc1cc(NC(=O)c2cc(C(C)C)c(C(C)C)o2)ccc1C(=O)O
65 | 228 to 230 | COc1cccc(CNC(=O)c2nc3cccc(OCCc4ccc(C(=O)O)cc4)c3c(=O)[nH]2)c1
66 | 150 to 151 | CN(CCNc1ccc2ncc(-c3ccccc3)n2n1)C(=O)OC(C)(C)C
67 | 185 to 190 | C=C1CC2C3CCC4=CC(=O)C=CC4(C)C3=CCC2(C)C1(O)C(C)=O (configuration not stated)
68 | 167 to 169 | CCCCc1nn(-c2cc(NC(=O)CC)ccc2C(F)(F)F)c(=O)n1Cc1ccc(-c2ccccc2S(=O)(=O)NC(=O)OC(C)(C)C)cc1F
69 | 138 to 140 | CC(=O)Oc1ccc2c(c1)C(=O)N(C(C)=O)C(C(Cl)(Cl)Cl)O2 (configuration not stated)
70 | 128 to 131 | CCCCNC(=O)c1ccc2c(c1)[C@H]1OCCN(CCC)[C@@H]1CC2 (relative stereo)
71 | 65 to 67 | O=C(CCl)CCc1ccc(Cl)cc1
72 | 174 to 177 | COC(=O)COc1c2c(cc3c1c1c(C(N)=O)cccc1n3Cc1ccccc1)CCCC2
